Source: ChEMBL document CHEMBL5120764, “Isarubrolone C Promotes Autophagic Degradation of Virus Proteins via Activating ATG10S in HepG2 Cells” (J Nat Prod, 2022)
Activity calls are given as the source filed them.

Experiments:
Format in all cases: functional, cell-based
HepG2 [1] = assay: Upregulation of endogenous ATG10S activated co-localisation of HBx with LAMP2 in human HepG2 cells co-transfected with HBx and ATG10-sMO by cellular immunofluorescence assay
HepG2 [2] = assay: Induction of autophagy in human HepG2 cells transfected with ZIKV-NS5 assessed as increase in ZIKV-NS5-P62 interaction level at 10 uM incubated for 24 hrs in presence of anti-Flag antibodies by co-immunoprecipitation assay
HepG2 [3] = assay: Induction of autophagy in human HepG2 cells transfected with HIV-RT assessed as increase in HIV-RT-LAMP2 interaction level at 10 uM incubated for 24 hrs in presence of anti-Flag antibodies by co-immunoprecipitation assay
HepG2 [4] = assay: Downregulation of HCV-CORE in human HepG2 cells co-transfected with HCV-subreplicon and ATG10-misMO upto 10 uM incubated for 24 hrs by western blot analysis
HepG2 [5] = assay: Induction of autophagy in human HepG2 cells transfected with HCV sub-replicon assessed as decrease in HCV-CORE protein level upto 10 uM and measured after 6 hrs by western blot analysis; conditions: DDE = dose-dependent effect
HepG2 [6] = assay: Upregulation of endogenous ATG10S activated co-localisation of HBx with LAMP2 in human HepG2 cells co-transfected with HBx and ATG10-misMO by cellular immunofluorescence assay
HepG2 [7] = assay: Induction of autophagy in human HepG2 cells transfected with HCV sub-replicon assessed as decrease in HCV-NS5B protein level upto 10 uM and measured after 6 hrs by western blot analysis; conditions: DDE = dose-dependent effect
HepG2 [8] = assay: Upregulation of P62 in human HepG2 cells transfected with ZIKV-NS5 and gene knockdown by IL28A morpholinos at 10 uM incubated for 24 hrs by western blot analysis
HepG2 [9] = assay: Induction of autophagy in human HepG2 cells transfected with HCV subgenomic replicon and gene knockdown by IL28A morpholinos assessed as LC3B and LAMP2 interaction at 10 uM incubated for 24 hrs in presence of anti-LC3B antibodies by co-immunoprecipitation assay
HepG2 [10] = assay: Induction of autophagy in human HepG2 cells transfected with HIV-RT assessed as decrease in HIV-RT protein level upto 10 uM and measured after 6 hrs by western blot analysis; conditions: DDE = dose-dependent effect
HepG2 [11] = assay: Downregulation of HCV-NS5B in human HepG2 cells co-transfected with HCV-subreplicon and ATG10-misMO upto 10 uM incubated for 24 hrs by western blot analysis
HepG2 [12] = assay: Upregulation of P62 in human HepG2 cells transfected with HCV sub-replicon and gene knockdown by IL28A morpholinos at 10 uM incubated for 24 hrs by western blot analysis
HepG2 [13] = assay: Upregulation of endogenous ATG10S activated co-localisation of HIV-RT with LAMP2 in human HepG2 cells co-transfected with HIV-RT and ATG10-sMO by cellular immunofluorescence assay
HepG2 [14] = assay: Upregulation of LC3B in human HepG2 cells transfected with HBx and gene knockdown by IL28A morpholinos at 10 uM incubated for 24 hrs by western blot analysis
HepG2 [15] = assay: Upregulation of endogenous ATG10S activated co-localisation of ZIKV-NS5 with LAMP2 in human HepG2 cells co-transfected with ZIKV-NS5 and ATG10-misMO by cellular immunofluorescence assay
HepG2 [16] = assay: Induction of autophagy in human HepG2 cells transfected with ZIKV-NS5 assessed as increase in ZIKV-NS5-LAMP2 interaction level at 10 uM incubated for 24 hrs in presence of anti-Flag antibodies by co-immunoprecipitation assay
HepG2 [17] = assay: Induction of autophagy in human HepG2 cells transfected with ZIKV-NS5 assessed as increase in ZIKV-NS5-LC3B interaction level at 10 uM incubated for 24 hrs in presence of anti-Flag antibodies by co-immunoprecipitation assay
HepG2 [18] = assay: Effect on HCV-CORE degradation in human HepG2 cells transfected with HCV sub-replicon at 10 uM pretreated with proteosome inhibitor MG132 for 12 hrs followed by compound addition and measured after 24 hrs by western blot analysis
HepG2 [19] = assay: Upregulation of P62 in human HepG2 cells transfected with HBx and gene knockdown by IL28A morpholinos at 10 uM incubated for 24 hrs by western blot analysis
HepG2 [20] = assay: Upregulation of endogenous ATG10S activated co-localisation of ZIKV-NS5 with LC3B in human HepG2 cells co-transfected with ZIKV-NS5 and ATG10-sMO by cellular immunofluorescence assay
HepG2 [21] = assay: Effect on ZIKV-NS5 degradation in human HepG2 cells transfected with ZIKV-NS5 at 10 uM pretreated with proteosome inhibitor MG132 for 12 hrs followed by compound addition and measured after 24 hrs by western blot analysis
HepG2 [22] = assay: Downregulation of ZIKV-NS5 in human HepG2 cells co-transfected with ZIKV-NS5 and ATG10-misMO upto 10 uM incubated for 24 hrs by western blot analysis
HepG2 [23] = assay: Upregulation of HIV-RT in human HepG2 cells transfected with HIV-RT and gene knockdown by IL28A morpholinos at 10 uM incubated for 24 hrs by western blot analysis
HepG2 [24] = assay: Upregulation of P62 in human HepG2 cells transfected with HIV-RT and gene knockdown by IL28A morpholinos at 10 uM incubated for 24 hrs by western blot analysis
HepG2 [25] = assay: Upregulation of endogenous ATG10S activated co-localisation of HBx with LC3B in human HepG2 cells co-transfected with HBx and ATG10-misMO by cellular immunofluorescence assay
HepG2 [26] = assay: Effect on P62 degradation in human HepG2 cells at 10 uM pretreated with proteosome inhibitor MG132 for 12 hrs followed by compound addition and measured after 24 hrs by western blot analysis
HepG2 [27] = assay: Effect on HCV-NS5B degradation in human HepG2 cells transfected with HCV sub-replicon at 10 uM pretreated with proteosome inhibitor MG132 for 12 hrs followed by compound addition and measured after 24 hrs by western blot analysis
HepG2 [28] = assay: Induction of autophagy in human HepG2 cells transfected with HBV-X and gene knockdown by IL28A morpholinos assessed as LC3B and LAMP2 interaction at 10 uM incubated for 24 hrs in presence of anti-LC3B antibodies by co-immunoprecipitation assay
HepG2 [29] = assay: Upregulation of ATG10/ATG10S mRNA level in human HepG2 cells transfected with ZIKV-NS5 upto 10 uM by RT-PCR analysis; conditions: DDE = dose-dependent effect
HepG2 [30] = assay: Induction of autophagy in human HepG2 cells transfected with HBx assessed as increase in HBx-LC3B interaction level at 10 uM incubated for 24 hrs in presence of anti-Flag antibodies by co-immunoprecipitation assay
HepG2 [31] = assay: Induction of autophagy in human HepG2 cells transfected with ZIKV-NS5 and gene knockdown by IL28A morpholinos assessed as LC3B and LAMP2 interaction at 10 uM incubated for 24 hrs in presence of anti-LC3B antibodies by co-immunoprecipitation assay

Measured: Activity

CC[C@@H](O)c1nc(C)cc2c1C(=O)c1cc(=O)c3c(c(O)c1-2)O[C@@H]1O[C@H](C)[C@@H](OC)[C@@H](O)[C@]31O
active: HepG2 [1] | HepG2 [2] | HepG2 [3] | HepG2 [4] | HepG2 [5] Dde | HepG2 [6] | HepG2 [7] Dde | HepG2 [8] | HepG2 [9] | HepG2 [10] Dde | HepG2 [11] | HepG2 [12] | HepG2 [13] | HepG2 [14] | HepG2 [15] | HepG2 [16] | HepG2 [17] | HepG2 [18] | HepG2 [19] | HepG2 [20] | HepG2 [21] | HepG2 [22] | HepG2 [23] | HepG2 [24] | HepG2 [25] | HepG2 [26] | HepG2 [27] | HepG2 [28] | HepG2 [29] Dde | HepG2 [30] | HepG2 [31]
